# Test results published in patent publication US20120208781A1, “AMINOGLYCOSIDE DOSING REGIMENS” (Achaogen, Inc., priority 2009, published 2012).
# Where “and” joins values, the source holds several entries; their conditions need not be identical. Identical values can stand only once. Like-named read-outs stand apart in the source and are kept apart here.
# What was measured:
# [1] = Pharmacokinetics of Compound 1 after single bolus IV injection in mice; type: in vivo, CD-1 mice; conditions: 10 mg/kg single bolus IV; for C0: 10 mg/kg
# Method: (§1) Male CD-1 mice, Sprague Dawley rats, and beagle dogs were administered Compound 1 intravenously. Compound 1 was preformulated as a sterile isotonic solution of 10 mg/mL in PBS. Specifically, male CD-1 mice were administered a single bolus IV injection of the Compound at 10 mg/kg, via a bolus IV injection into the tail vein. Two blood samples per mouse were collected by retro-orbital puncture into tubes containing the anticoagulant K2EDTA prior to dosing and at 0.033, 0.083, 0.25, 0.5, 1 and 24 hours. Rats were administered Compound 1 at 10 mg/kg via a bolus IV injection into the tail vein. Twelve blood samples per rat were collected via a jugular vein cannula into tubes containing the anticoagulant K2EDTA at various timepoints (i.e., 0.033, 0.083, 0.25, 0.5, 1, 2, 4, 6, 8, 10, 12, and 24 hours). Male beagle dogs were administered Compound 1 at 10 mg/kg through a temporary percutaneous catheter placed in a peripheral vein. Whole blood samples (0.5 mL) were collected from each dog prior to dosing and at 0.033, 0.083, 0.25, 0.5, 1, 2, 4, 6, 8, and 24 hours via direct venipuncture of a jugular or cephalic vein into tubes containing the anticoagulant K2EDTA. A sparse sampling method was employed to conserve animals and provide the best data possible from fewer mice. Samples were centrifuged, and plasma was collected and transferred into a new tube and frozen at −80° C. until they were analyzed.
# (§2) Blood, urine, and kidney samples collected over 24 hours were analyzed for Compound 1 levels using LC-MS/MS. Method performance was acceptable in the concentration ranges necessary to determine plasma levels. Compound 1 plasma concentrations were determined by comparing Compound 1 concentration in the sample to a standard curve derived from LC-MS/MS measurements of the analyte. The standard curve fit was linear with a 1/x^2 weighting.
# (§3) Bioanalytical data analyses were carried out using Analyst software (version 1.4.1, Applied Biosystems, Toronto, ON, Canada). […] PK parameters were determined by noncompartmental analysis using WinNonLin. Plasma protein binding was determined using equilibrium dialysis. In vitro stability was determined using commercially available plasma, microsomes and hepatocytes.
# [2] = Pharmacokinetics of Compound 1 after single bolus IV injection in rats; type: in vivo, Sprague Dawley rats; conditions: for half-life / AUC(0-inf) / C0 / clearance / MRT inf / Vd: Sprague Dawley, rat, plasma, 10 mg/kg
# Method: as §1, §2, §3
# [3] = Urine concentration analysis / urinary recovery of Compound 1 in beagle dogs; type: in vivo; conditions: 10 mg/kg IV; for % of Cmpd 1 recovered in urine: 24 hours; for concentration at 6 h / concentration at 12 h / concentration at 24 h: male, beagle, dog, urine, iv, read-out: Cmpd 1 urine concentration
# Method: as §1, §2
# [4] = test system: K. pneumoniae (KP); assay: MIC, broth microdilution, Brooklyn hospital isolates: K. pneumoniae; type: cell-based; conditions: Klebsiella pneumoniae; KP (n = 71)
# Method: In another study, the activity of Compound 1 against a collection of contemporary Gram-negative bacteria was determined. Unique patient isolates of P. aeruginosa (PA), A. baumannii (AB), K. pneumoniae (KP), E. coli (EC), and Enterobacter spp. (EB) from prior surveys at 16 Brooklyn, N.Y. hospitals were selected based on resistance patterns. The majority of isolates were fingerprinted by automated ribotyping. MICs were performed by broth microdilution. PCR was used to identify aminoglycoside-modifying enzymes (AMEs) in AB and KP and the KPC gene in Enterobacteriaceae (EN). The expression of the efflux genes mexA, C, E and X in PA, and adeB in AB was assessed by real-time RT-PCR.
# [5] = First-in-human phase 1 study: urine levels of Compound 1; type: in vivo; conditions: Cohort 4 (15 mg/kg)
# Method: Pooled urine samples for PK analysis were obtained with the single dose and first and last multiple-dose.
# The levels of Compound 1 present in the urine of Cohort 4 patients during the 24 hours following administration of the third multi-dose was also examined. […] Perhaps of even greater significance, the concentration of Compound 1 achieved in the urine was at least 1 mg/ml immediately following administration, and remained over 0.1 mg/ml for 12 hours.
# [6] = Phase 1 study 15 mg/kg/day once daily for five days: safety, BUN and Cr; type: in vivo, human; conditions: healthy subjects
# Method: An additional randomized, double-blind, placebo-controlled study was performed to assess the safety and pharmacokinetics of Compound 1 following IV administration to healthy adult volunteers according to a high dose, short course regimen of 15 mg/kg/day of Compound 1 administered once daily for five days. Compound 1 was formulated as a sterile solution at a concentration of 50 mg/mL in 10 mL glass vials for intravenous (IV) administration (“Compound 1 Injection”). Eight healthy subjects were randomized to receive either Compound 1 Injection or placebo administered IV by 10 minute infusion daily for five days. Seven subjects received 5 doses and one received 3 doses (early withdrawal for personal reasons).
# BUN and creatine (Cr) were assessed daily for each of the five days prior to dosing and at day 5 post-dosing to assess renal function following this high dose, short course regimen.
# [7] = iv, 10 mg/kg single bolus IV, Mean ± SD
# [8] = iv, 10 mg/kg single bolus IV, Rat 101
# [9] = iv, 10 mg/kg single bolus IV, Rat 102
# [10] = iv, 10 mg/kg single bolus IV, Rat 103
# [11] = 15 mg/kg/day IV once daily for five days, one line per Subject ID, 15 mg/kg/day
compound,measurement,setting,value
"CN[C@@H]1[C@@H](O)[C@@H](O[C@@H]2[C@@H](O)[C@H](O[C@H]3OC(CNCCO)=CC[C@H]3N)[C@@H](N)C[C@H]2NC(=O)[C@@H](O)CCN)OC[C@]1(C)O [Compound 1, 6′-(2-Hydroxy-ethyl)-1-(4-amino-2(S)-hydroxy-butyryl)-sisomicin]",C0,[1],87.6 µg/mL
same,AUC(0-inf),"[1]; male, CD-1, mouse, plasma",18500 ng·h/mL
same,clearance,"[1]; male, CD-1, mouse, plasma",9.02 mL/min/kg
same,half-life,"[1]; male, CD-1, mouse, plasma",84 min
same,MRT inf,"[1]; male, CD-1, mouse, plasma, read-out: MRT0-∞",36 min
same,Vd,"[1]; male, CD-1, mouse, plasma, read-out: Vss",0.34 L
same,Vd,"[1]; male, CD-1, mouse, plasma, read-out: volume of distribution at steady state (Vss)",0.34 L/kg
same,C0,"[1]; male, CD-1, mouse, plasma, iv, read-out: C0",88 µg/mL
same,tissue distribution,[2],distributed to rat kidneys
same,half-life,"[2]; intravenous, read-out: t½ (renal clearance) (converted)",~60 min
same,AUC(0-inf),[2]; [7],15700 ng·h/mL
same,C0,[2]; [7],37.5 µg/mL
same,clearance,[2]; [7],10.8 mL/min/kg
same,MRT inf,"[2]; iv, 10 mg/kg single bolus IV, Mean ± SD, read-out: MRT0-∞",42 min
same,Vd,"[2]; iv, 10 mg/kg single bolus IV, Mean ± SD, read-out: Vss",0.437 L/kg
same,half-life,"[2]; iv, 10 mg/kg single bolus IV, Mean ± SD, read-out: t1/2 (converted)",56.4 min
same,AUC(0-inf),[2]; [8],13800 ng·h/mL
same,C0,[2]; [8],41.7 µg/mL
same,clearance,[2]; [8],12.1 mL/min/kg
same,MRT inf,"[2]; iv, 10 mg/kg single bolus IV, Rat 101, read-out: MRT0-∞",36 min
same,Vd,"[2]; iv, 10 mg/kg single bolus IV, Rat 101, read-out: Vss",0.403 L/kg
same,half-life,"[2]; iv, 10 mg/kg single bolus IV, Rat 101, read-out: t1/2 (converted)",57 min
same,AUC(0-inf),[2]; [9],18500 ng·h/mL
same,C0,[2]; [9],42.2 µg/mL
same,clearance,[2]; [9],9.02 mL/min/kg
same,MRT inf,"[2]; iv, 10 mg/kg single bolus IV, Rat 102, read-out: MRT0-∞",48 min
same,Vd,"[2]; iv, 10 mg/kg single bolus IV, Rat 102, read-out: Vss",0.434 L/kg
same,half-life,"[2]; iv, 10 mg/kg single bolus IV, Rat 102, read-out: t1/2 (converted)",55.8 min
same,AUC(0-inf),[2]; [10],14800 ng·h/mL
same,C0,[2]; [10],28.8 µg/mL
same,clearance,[2]; [10],11.3 mL/min/kg
same,MRT inf,"[2]; iv, 10 mg/kg single bolus IV, Rat 103, read-out: MRT0-∞",42 min
same,Vd,"[2]; iv, 10 mg/kg single bolus IV, Rat 103, read-out: Vss",0.473 L/kg
same,half-life,"[2]; iv, 10 mg/kg single bolus IV, Rat 103, read-out: t1/2 (converted)",55.8 min
same,Cmax and exposure (AUC) dose linearity,[2]; intravenous dosing,dose linear to 75 mg/kg
same,% of Cmpd 1 recovered in urine,[3]; Dog 6001,134%
same,% of Cmpd 1 recovered in urine,[3]; Dog 6002,135%
same,% of Cmpd 1 recovered in urine,[3]; Dog 6003,87%
same,% of Cmpd 1 recovered in urine,"[3]; Mean (±SD), 10 mg/kg",119% and 119 ± 22%
same,Cmpd 1 urine concentration,"[3]; Dog 6001, Total",1070 µg/mL
same,Cmpd 1 urine concentration,"[3]; Dog 6002, Total",573 µg/mL
same,Cmpd 1 urine concentration,"[3]; Dog 6003, 6 hr",1180 µg/mL
same,Cmpd 1 urine concentration,"[3]; Dog 6003, Total",1324 µg/mL
same,concentration at 6 h,"[3]; 10 mg/kg, Dog 6001, 6 hr",1000 µg/mL
same,concentration at 12 h,"[3]; 10 mg/kg, Dog 6001, 12 hr",47 µg/mL
same,concentration at 24 h,"[3]; 10 mg/kg, Dog 6001, 24 hr",24 µg/mL
same,concentration at 6 h,"[3]; 10 mg/kg, Dog 6002, 6 hr",505 µg/mL
same,concentration at 24 h,"[3]; 10 mg/kg, Dog 6002, 24 hr",68 µg/mL
same,concentration at 12 h,"[3]; 10 mg/kg, Dog 6003, 12 hr",100 µg/mL
same,concentration at 24 h,"[3]; 10 mg/kg, Dog 6003, 24 hr",44 µg/mL
same,MIC50,[4],0.5 µg/mL
same,MIC90,[4],1 µg/mL
same,urine concentration immediately following administration,[5],at least 1 mg/ml
same,urine concentration maintained for 12 hours,[5],over 0.1 mg/ml
same,administered Compound 1 excreted within 24 hours (upper estimate),[5]; after third multi-dose,about 90%
same,average fraction excreted in urine in an unchanged form over 24 hours,[5]; after third multi-dose,75%
same,severity of adverse events,"[6]; 15 mg/kg/day IV 10 minute infusion, five days",mild to moderate
same,"Serum Creatine, Pre-dose","[6]; 15 mg/kg/day IV once daily for five days, fifth pre-dose column, one line per Subject ID, 15 mg/kg/day",0.7 mg/dL (2×) and 0.8 mg/dL and 1.2 mg/dL (2×) and 1.1 mg/dL and 1.0 mg/dL
same,"BUN, Post-dose 5",[6]; [11],13 mg/dL (3×) and 14 mg/dL and 9 mg/dL and 20 mg/dL and 15 mg/dL
same,"BUN, Pre-dose 1",[6]; [11],9 mg/dL (2×) and 10 mg/dL and 13 mg/dL and 5 mg/dL and 15 mg/dL and 19 mg/dL and 14 mg/dL
same,"BUN, Pre-dose 2",[6]; [11],18 mg/dL and 16 mg/dL and 19 mg/dL and 17 mg/dL (2×) and 8 mg/dL and 20 mg/dL and 22 mg/dL
same,"BUN, Pre-dose 3",[6]; [11],13 mg/dL and 18 mg/dL (2×) and 19 mg/dL and 17 mg/dL and 9 mg/dL and 15 mg/dL and 14 mg/dL
same,"BUN, Pre-dose 4",[6]; [11],13 mg/dL and 14 mg/dL (2×) and 12 mg/dL and 8 mg/dL and 17 mg/dL and 19 mg/dL and 16 mg/dL
same,"BUN, Pre-dose 5",[6]; [11],16 mg/dL (3×) and 13 mg/dL and 14 mg/dL and 11 mg/dL and 15 mg/dL
same,"Serum Creatine, Post-dose 5",[6]; [11],0.6 mg/dL (2×) and 1.0 mg/dL and 0.7 mg/dL and 1.1 mg/dL and 0.9 mg/dL (2×)
same,"Serum Creatine, Pre-dose 1",[6]; [11],0.7 mg/dL (2×) and 0.6 mg/dL (2×) and 0.9 mg/dL (2×) and 1.2 mg/dL and 1.0 mg/dL
same,"Serum Creatine, Pre-dose 2",[6]; [11],0.7 mg/dL and 0.6 mg/dL (2×) and 0.9 mg/dL (2×) and 1.1 mg/dL (2×) and 1.3 mg/dL
same,"Serum Creatine, Pre-dose 3",[6]; [11],0.6 mg/dL (3×) and 0.7 mg/dL and 1.0 mg/dL and 1.1 mg/dL and 0.9 mg/dL and 0.8 mg/dL
same,"Serum Creatine, Pre-dose 4",[6]; [11],0.6 mg/dL (4×) and 1.0 mg/dL and 1.2 mg/dL and 0.9 mg/dL (2×)
same,changes in BUN or Cr at day 5 post-dosing,"[6]; 15 mg/kg/day IV, five days",no substantial changes in either BUN or Cr
same,tolerability,"[6]; 15 mg/kg/day IV, five days",well-tolerated
same,ototoxicity or nephrotoxicity,"[6]; 15 mg/kg/day IV, five days, through the treatment period",No evidence of ototoxicity or nephrotoxicity
